Assay results as given in patent publication US7252992B2, “Cell line and uses thereof” (Abbott Laboratories, priority 2003, dated 2007).

Experiments:
[1] = biological target: T1, melanin concentrating hormone receptor (MCHR) (Homo sapiens, UniProt Q99705); assay: Ca++-mobilization assay using I3.4.2 cells (FLIPR); type: cell-based; settings: for inhibition of MCH-stimulated intracellular Ca++-flux: T42402I3.4.2 cell line, FIG. 3
T1 construct: endogenous in cells; host or cells: T42402I3.4.2 (I3.4.2) cells, ATCC PTA-5201, derived from IMR32 (ATCC CCL-127) by transfection of a Galpha16/Zeocin-resistance plasmid
Method: The following day, Zeocin (Invitrogen, Carlsbad, Calif.) was added to a final concentration of 20 μg/ml. Cells were maintained in this medium with periodic replacement until discrete colonies were observed. Individual colonies were isolated and propagated until sufficiently large cell populations were obtained such that the cell samples could be cryopreserved.
This intracellular calcium release is measured using a fluorometeric imaging plate reader (FLIPR™, Molecular Devices Corp., Sunnyvale, Calif.) in conjunction with the Ca^++-sensitive dye reagent (Calcium Assay Reagent, Molecular Devices Corp., Sunnyvale, Calif.). Release of Ca^++ from intracellular stores causes an increase in fluorescence of the dye that is proportional to Ca^++ concentration. Thus, this method may be utillized to identify agonist-s, antagonists, and inverse agonists of MCHR1.
In particular, the assay is carried out as follows: The cells are cultured in MEM/10% fetal bovine serum/50 μg/mL gentamicin/200 μg/ml Zeocin. […] Calcium Assay Reagent fluorescence is measured at 488 nm, with an exposure of 0.40 sec. and F-stop=2.0 and the laser set at 0.20-0.40 W constant light output.

MCHR1 [2] = biological target: T2, MCHR1 (Homo sapiens, UniProt Q99705); settings: literature (Takekawa et al. 2002; Borowsky et al. 2002); cited from earlier work
MCHR1 [3] = biological target: T2, MCHR1; settings: literature (Takekawa et al. 2002; Borowsky et al. 2002); cited from earlier work; remark: listed apart in the source

T2 sequence (Q99705 whole entry, species assumed): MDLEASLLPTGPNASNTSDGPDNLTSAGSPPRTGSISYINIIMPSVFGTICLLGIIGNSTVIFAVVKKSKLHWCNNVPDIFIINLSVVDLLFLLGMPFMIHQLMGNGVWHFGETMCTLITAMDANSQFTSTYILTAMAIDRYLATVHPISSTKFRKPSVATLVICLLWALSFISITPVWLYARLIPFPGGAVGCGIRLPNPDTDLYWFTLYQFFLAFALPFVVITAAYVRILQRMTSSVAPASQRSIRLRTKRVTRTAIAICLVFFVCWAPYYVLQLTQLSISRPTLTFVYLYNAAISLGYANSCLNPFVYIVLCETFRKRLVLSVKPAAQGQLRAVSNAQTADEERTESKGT
T1 sequence (Q99705 whole entry): as the sequence (Q99705 whole entry, species assumed) above

Structure (SMILES)	MCH-induced response (fluorescence) ([1]; MCH 1 μM, baseline approximately 700 RFU)	inhibition of binding of 125I-labeled MCH to MCHR1 (MCHR1 [2])	inhibition of MCH-stimulated intracellular Ca++-flux [1]	inhibition of activation of intracellular signaling by MCH (MCHR1 [3])
CSCC[C@@H]1NC(=O)[C@@H](NC(=O)[C@H](CCCNC(=N)N)NC(=O)[C@H](CC(C)C)NC(=O)[C@H](CCSC)NC(=O)[C@H](CC(=O)O)NC(=O)[C@H](Cc2ccccc2)NC(=O)[C@@H](N)CC(=O)O)CSSC[C@@H](C(=O)N[C@@H](Cc2c[nH]c3ccccc23)C(=O)N[C@@H](CCC(N)=O)C(=O)N[C@H](C(=O)O)C(C)C)NC(=O)[C@@H]2CCCN2C(=O)[C@H](CCCNC(=N)N)NC(=O)[C@H](Cc2ccc(O)cc2)NC(=O)[C@H](C(C)C)NC(=O)[C@H](CCCNC(=N)N)NC(=O)CNC(=O)[C@H](CC(C)C)NC1=O [MCH, melanin-concentrating hormone]	5,000-6,000 relative fluorescence units (RFU)	–	–	–
COCC1=C(C(=O)OC)[C@H](c2ccc(F)c(F)c2)N(C(=O)NCCCN2CCC(c3cccc(NC(C)=O)c3)CC2)C(=O)N1 [SNAP-7941]	–	inhibit binding	inhibited	inhibit
CN(C)CC1CCc2cc(NC(=O)c3ccc(-c4ccc(F)cc4)cc3)ccc2C1 (stereo not shown) [T-226296]	–	inhibit binding	inhibited	inhibit
